The values below come from US20250051283A1, “THERAPEUTIC COMPOUNDS AND METHODS” (priority 2023, published 2025).

Read-outs that look alike come from different tables or passages of the source.

Data set [1] concerns EV-D68 US/KY/14-18953 (clade D). Put plainly: Broad-spectrum antiviral activity (Table 1), US/KY/14-18953. The class given is cell-based, Enterovirus D68. The note with it: Enterovirus D, EVD68. The protocol: (§1) Cell lines and viruses. Human rhabdomyosarcoma (R.D., ATCC, CCL-136) cells were maintained at 37° C. in a 5% CO2 atmosphere and cultured in Dulbecco's modified Eagle's medium (DMEM) supplemented with 10% fetal bovine serum (FBS) and 1% penicillin-streptomycin antibiotics. The following reagents were obtained through BEI Resources, NIAID, NIH: Human Enterovirus D68, US/MO/14-18949, NR-49130; Enterovirus D68, US/MO/14-18947, NR-49129; Enterovirus D68, US/IL/14-18952, NR-49131; Enterovirus D68, US/KY/14-18953, NR-49132; Enterovirus D68, US/IL/14-18956, NR-49133.
(§2) Antiviral assays. Cells for antiviral assays were seeded and grown overnight at 37° C. in a 5% CO2 atmosphere for ˜90% confluency the next day. For all infections, cells were washed with PBS containing magnesium and calcium and infected with virus diluted in DMEM with 2% FBS and 30 mM MgCl2. Viruses were incubated for at least 1 h at 33° C. in a 5% CO2 atmosphere, followed by the addition of compound as well as 1% penicillin-streptomycin. […] For cytopathic effect (CPE) assays, cells were stained with 66 µg/mL neutral red for 2 h and neutral red uptake was measured at absorbance 540 nm using a Multiskan FC Microplate Photometer (ThermoFisher Scientific). The EC50 and CC50 values were calculated from best-fit dose response curves using GraphPad Prism. […]

The subject of data set [2] is R.D. cells. Put plainly: Cytotoxicity by neutral red uptake in R.D. cells, no viral infection. The class given is cell-based, Human. The protocol:
as §1
(§3) Antiviral assays. Cells for antiviral assays were seeded and grown overnight at 37° C. in a 5% CO2 atmosphere for ˜90% confluency the next day. For all infections, cells were washed with PBS containing magnesium and calcium and infected with virus diluted in DMEM with 2% FBS and 30 mM MgCl2. Viruses were incubated for at least 1 h at 33° C. in a 5% CO2 atmosphere, followed by the addition of compound as well as 1% penicillin-streptomycin. For CC50 measurements, the experiment was performed similarly but excluded viral infection. For cytopathic effect (CPE) assays, cells were stained with 66 µg/mL neutral red for 2 h and neutral red uptake was measured at absorbance 540 nm using a Multiskan FC Microplate Photometer (ThermoFisher Scientific). The EC50 and CC50 values were calculated from best-fit dose response curves using GraphPad Prism. For plaque reduction assays, an 1.2% avicel microcrystalline cellulose (FMC BioPolymer, Philadelphia, PA) overlay was used and cells were stained after 3 days as previously described^26.

Data set [3] concerns EV-D68 US/IL/14-18952 (clade B2). Put plainly: Broad-spectrum antiviral activity (Table 1), US/IL/14-18952. Particulars: Enterovirus D, EVD68. The class given is cell-based, Enterovirus D68. The procedure:
as §1, §2

Data set [4] has as its system EV-D68 US/MO/14-18947. The experiment in a line: CPE assay (neutral red) with EV-D68 US/MO/14-18947 in R.D. cells. Particulars: CPE assay, EV-D68 US/MO/14-18947 in R.D. cells. The class given is cell-based, Enterovirus D68. The procedure, abridged: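 R.D. cells infected (DMEM, 2% FBS, 30 mM MgCl2) for ≥1 h at 33° C before compound addition; CPE read by neutral red uptake ([…], 2 h, A540), plaque reduction under 1.2% avicel overlay, stained after 3 days. EC50 and CC50 (uninfected cells) from dose-response curve fits.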

Data set [5] deals with five strains of EV-D68 (B1, B2, and D clades). The experiment in a line: Broad-spectrum antiviral activity, summary over five EV-D68 strains. The class given is cell-based, Enterovirus D68. The protocol: as §1, §2
Data set [6] in a line: Cytotoxicity by neutral red uptake in R.D. cells, no viral infection. The class given is cell-based, Human. The note with it: human, R.D. (rhabdomyosarcoma, ATCC CCL-136) cells, uninfected. The protocol:
as §1, §3

In data set [7] the test system is EV-D68 US/MO/14-18947 (clade B1). The experiment in a line: Broad-spectrum antiviral activity (Table 1), US/MO/14-18947. The class given is cell-based. The note with it: Enterovirus D, EVD68. The protocol:
as §1, §2

Data set [8] concerns the target EV-D68 2A^pro (Enterovirus D68, UniProt A0A097BW19). Put plainly: FRET-based enzymatic assay of EV-D68 2Apro inhibition. The class given is biochemical. The protocol: Protein expression and purification. EV-D68 2A^pro gene from strain US/KY/14-18953 was ordered from Genscript (Piscataway, NJ) in pET28b(+) vector with E. coli codon optimization. 2A^pro gene was subcloned into pE-SUMOstar vector according to the manufacturers protocol. Plasmid encoding WT-2A^pro was transformed into BL21(DE3) competent E. coli cells, and a single colony was picked and used to inoculate 10 mL of L.B. grown supplemented with 50 μg/mL kanamycin at 37° C. at 250 rpm. The 10 mL inoculant was added to 1 L of L.B. with 50 μg/mL kanamycin and grown to an OD600 of 0.8-1.0, cooled to 18° C., then induced using 0.5 mM IPTG. Induced cultures were incubated at 18° C. for an additional 24 h, then harvested and resuspended in lysis buffer (25 mM Tris (pH 7.5); 750 mM NaCl, 2 mM DTT with 0.5 mg/mL lysozyme, 0.5 mM PMSF and 0.02 mg/mL DNase I) and lysed with alternating sonication and French press cycles. The cell debris were removed by centrifugation at 12,000×g for 45 min […]. The supernatant was incubated with Ni-NTA resin for over 2 h at 4° C. on a rotator. The Ni-NTA resin was thoroughly washed with 50 mM imidazole in wash buffer (50 mM Tris (pH 7.5), 150 mM NaCl, and 2 mM DTT); for the SUMO-tagged protein, the protein was directly eluted with 300 mM imidazole; for the nontagged 2A^pro Ni-NTA resin was treated with SUMO Protease 1 to remove the SUMO tag, then 2A^pro was washed off from the column with 10 mM imidazole in wash buffer. The imidazole was removed via dialysis or 10 K molecular weight cut-off centrifugal concentrator spin column. The purity of the protein was confirmed with SDS-PAGE. The protein concentration was determined by classic BCA assay using bovine serum albumin as a standard. EV-D68 3C^pro in pET28b(+) vector was expressed as previously described^10.
Peptide synthesis. The FRET substrate of EV-D68 2A^pro, Dabcyl-KIRIVNT/GPGFGGE-Edans, was synthesized using the Fmoc solid phase synthesis strategy.
Enzymatic assays. The reaction buffer contains 50 mM Tris (pH7.0), 150 mM NaCl, 10% Glycerol, and 2 mM DTT, and the reaction was carried out at 30° C. in Cytation 5 imaging reader (Fisher Scientific) with EX360/40-EM460/40 filter. Reactions were monitored every 90 sec. […] The reaction was initiated by adding 20 μM of FRET substrate, and the reaction was monitored for 2 hours and initial velocity was calculated for the first 30 minutes via linear regression.

Chain of EV-D68 2A^pro (A0A097BW19 entry or part of it): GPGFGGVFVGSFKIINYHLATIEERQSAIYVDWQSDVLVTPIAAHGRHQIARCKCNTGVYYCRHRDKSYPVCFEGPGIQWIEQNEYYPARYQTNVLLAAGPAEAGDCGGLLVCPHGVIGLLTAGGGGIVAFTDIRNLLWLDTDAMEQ

The term EC50 denotes the midpoint of the concentration-response curve. In general, CC50 refers to the concentration that lowers cell viability or growth by half. Lower therefore signals greater toxicity to the cells. As for `CCC[C@H](NC(=O)[C@@H]1[C@H]2CCC[C@H]2CN1C(=O)[C@@H](NC(=O)[C@@H](NC(=O)c1cnccn1)C1CCCCC1)C(C)(C)C)C(=O)C(=O)NC1CC1` [Telaprevir, reference compound], the EC50 in data set [1] was found to be 209 ± 37.1 nM; in data set [3] it was 828 ± 107 nM. In data set [2], this molecule returned a CC50 of 83200 nM.

Regarding `CC(C)(C)C(NC(=O)CC12CC3CC(CC(C3)C1)C2)C(=O)N1CC2CCCC2C1C(=O)NC(C(=O)C(=O)NC1CC1)C1CCCCC1` [Jun11762, (1S,3aR,6aS)-2-((S)-2-(2-((3S,5S,7S)-adamantan-1-yl)acetamido)-3,3-dimethylbutanoyl)-N—((S)-1-cyclohexyl-3-(cyclopropylamino)-2,3-dioxopropyl)octahydrocyclopenta[c]pyrrole-1-carboxamide], the “antiviral activity, in words, relative to the named comparator” value in data set [4] is “comparable enzymatic inhibition and antiviral activity as Jun8861”. Further, the EC50 is 43 to 269 nM in data set [5] (Enterovirus D, EVD68, read-out: EC50 values over all five strains); 269 ± 21.9 nM in data set [3] (EV-D68 US/IL/14-18952 (clade B2), read-out: EC50); 43 ± 3.3 nM in data set [7]. Besides, in data set [5] (five EV-D68 strains, versus telaprevir), the “fold improvement of EC50 compared to telaprevir” value is 3.1-4.6 fold. Further, in data set [6], the CC50 was > 150000 nM. Further, the “enzymatic inhibition, in words, relative to the named comparator” value in data set [8] is “comparable enzymatic inhibition and antiviral activity as Jun8861”.
